Data: patent US6849598B1, “Therapeutic compositions comprising bactericidal/permeability-increasing (BPI) protein products” (XOMA, priority 1995, dated 2005)
≈ marks a conversion by molar mass, not a printed value. Read-outs that look alike come from different tables or passages of the source.

Tests used:
E. faecium = assay: Antibiotic susceptibility (MIC, Sensititre Trays) with rBPI21 poloxamer formulations; type: cell-based; settings: for MIC: Enterococcus faecium, read-out: Minimum Inhibitory Concentration
Protocol: The effect of therapeutic compositions of rBPI21 formulated with poloxamer, with or without EDTA, was evaluated on the antibiotic susceptibility of the multiple drug resistant A. baumannii, S. pneumoniae, E. faecium and P. aeruginosa organisms of Example 5. Therapeutic compositions were prepared containing 2 mg/mL rBPI21, (5 mM sodium citrate, 150 mM NaCl) with a 0.2% (w/v) concentration of PLURONIC F68, P103, P104, P105 or P123. The effect on the antibiotic susceptibility of the organisms was determined in Mueller-Hinton Broth plus Cations (CSMHB, Remel), or 40% pooled human serum in CSMHB (Sigma, St. Louis, Mo.), as follows.
Isolated colonies of the organism from overnight cultures were suspended in Microscan® Inoculum Water to a concentration equivalent to a 0.5 McFarland Standard (approximately 1×10^8 CFU/ml), determined using a Microscan® turbidimeter. Aliquots were transferred to either CSMHB or 40% pooled human serum in CSMHB. Each tube contained either a final concentration of 16 μg/mL rBPI21 or an equivalent volume of control buffer. Minimal inhibitory concentrations (MIC) for each antibiotic tested, i.e. the lowest concentration of antibiotic which inhibits visible growth, were determined using gram-negative (MB and MC) and gram-positive (MA) Sensititre Trays (Radiometer America, Westlake, Ohio), which allow for the rapid and simultaneous survey of a broad spectrum of standard antibiotics. Any other antimicrobial panel systems known in the art, such as the Microscan® (Dade Microscan, Sacramento, Calif.), Pasco (DIFCO, Detroit, Mich.) and Alamar (Alamar, Sacramento, Calif.) systems, may alternatively be used to assay for antibiotic susceptibility.
Tables 12-15 below display a summary of the results of the antibiotic screening panels, reported for each strain tested as the MIC of the tested antibiotics in the presence of the indicated rBPI21 therapeutic composition. The antibiotic susceptibility standards (interpretation of an MIC as clinically resistant (R), intermediate (I) or susceptible (S) according to NCCLS standards) applicable to the organism tested appear in superscript next to the MIC.

[1] = tested on: P. aeruginosa (ATCC 19660); assay: Antibiotic susceptibility (MIC, Microscan® MIC Plus Type 2 panel) with rBPI21/P123 and EDTA; type: cell-based; parameters: key to susceptibility interpretation of MIC (superscript): R: resistant; I: intermediate; S: susceptible; settings: for effect of EDTA added to the rBPI21/P123 formulation on susceptibility of the strain to the antibiotic: summary of Table 17
Protocol: In additional experiments, a BPI protein product, rBPI21, was formulated with an anti-bacterial activity enhancing poloxamer, specifically PLURONIC P123, and with various concentrations of EDTA, and was evaluated for its effect on the antibiotic susceptibility of a Pseudomonas aeruginosa (ATCC 19660). Antibiotic susceptibility was determined using Microscan® panel plates (Dade Microscan, West Sacramento, Calif.) that allow simultaneous determination of minimum inhibitory concentrations for a number of different antibiotics.
The antimicrobial susceptibility tests performed on the Microscan® panel plates are miniaturizations of the broth dilution susceptibility test. Antimicrobial agents are serially diluted in Mueller-Hinton broth (supplemented with calcium and magnesium, or with sodium chloride for oxacillin, or with thymidine phosphorylase for trimethoprim, sulfamethoxazole and trimethoprim/ sulfamethoxazole) to concentrations bridging the range of clinical interest. One well on the 96-well Microscan® plate is a growth control well that contains dehydrated broth only. The remaining wells contain dehydrated broth and antibiotic (or broth and biochemical reagent indicator), which is rehydrated to the desired concentration by inoculation of a standardized suspension of test organism. The chromogenic biochemical agent indicators are used to identify and characterize the species of bacteria based on detection of pH changes and substrate utilization. […] Gram-negative and gram positive organisms may be tested using any of the Microscan® panel plates (Microscan®, Dade Microscan, West Sacramento, Calif.). In these experiments with P. aeruginosa, the MIC Plus Type 2 panel plates were used. The concentrations of antibiotics tested in this panel plate are shown below in Table 16. The antibiotic susceptibility standards (interpretation of an MIC as resistant, intermediate or susceptible according to Microscan®'s NCCLS-derived standards) applicable to the gram-negative organisms that may be tested in each panel plate appear below in Table 16A.
For these experiments with P. aeruginosa, the following procedure was performed: The organism was streaked onto TSA plates (Remel, Lenexa, Kans.) and incubated for 18-24 hours overnight. Well-isolated A, colonies from the plates were emulsified in 3 ml of sterile Inoculum Water d(catalog no. B1015-2, MicrosScan® system, Dade Microscan, West Sacramento, Calif.) to a final turbidity equivalent to 0.5 McFarland Barium Sulfate standard. This cell suspension was vortexed for 2 to 3 seconds and 100 μl was transferred to glass tubes containing 25 ml of Inoculum Water with Pluronic-D (catalog no. B1015-7, MicroScan® system, Dade Microscan, West Sacramento, Calif.) (hereinafter “Pluronic Inoculum Water”), or 25 ml of Pluronic Inoculum Water into which rBPI21 in 0.2% PLURONIC P123, 0.002% TWEEN 80, 5mM sodium citrate, 150 mM NaCl (“rBPI21/P123”) had been diluted to 64 μg/ml rBPI21.
The 25 ml of this inoculum containing rBPI21 was mixed by inversion and poured into a tray. The inoculum was drawn up into a manual 96-well pipetting system (RENOK^− rehydrator-inoculator system, Dade Microscan, West Sacramento, Calif.) designed for use with the Microscan® panel plates, and 110 μl of the inoculum was delivered to each well of a Microscan® MIC Plus Type 2 panel plate. When added to the wells, this inoculum achieves a final bacterial concentration of 4×10^5 to 7×10^5 CFU/ml. The panel plates were then incubated at 35° C. for 15-24 hours and read visually for cell growth.
No growth was defined as a slight whiteness in the well or a clear broth. Growth appeared as turbidity which could take the form of a white haze throughout the well, a white button in the center of the well, or a fine granule growth throughout the well. All wells were read against a black indirectly lighted background. Visual results of the biochemical reactions were read into a database for bacterial identification.

[2] = CSMHB, 16 μg/mL rBPI21 with F68
[3] = CSMHB, 16 μg/mL rBPI21 with P103
[4] = CSMHB, 16 μg/mL rBPI21 with P104
[5] = CSMHB, 16 μg/mL rBPI21 with P105
[6] = CSMHB, 16 μg/mL rBPI21 with P123
[7] = Serum, 16 μg/mL rBPI21 with F68
[8] = Serum, 16 μg/mL rBPI21 with P103
[9] = Serum, 16 μg/mL rBPI21 with P104
[10] = Serum, 16 μg/mL rBPI21 with P105
[11] = Serum, 16 μg/mL rBPI21 with P123
[12] = rBPI21/P123 at 64 μg/ml rBPI21, With 0% EDTA
[13] = rBPI21/P123 at 64 μg/ml rBPI21, With 0.01% EDTA
[14] = rBPI21/P123 at 64 μg/ml rBPI21, With 0.05% EDTA
[15] = rBPI21/P123 at 64 μg/ml rBPI21, With 0.1% EDTA

| Molecule | susceptibility interpretation of MIC (superscript) (E. faecium; [2]) | susceptibility interpretation of MIC (superscript) (E. faecium; [3]) | susceptibility interpretation of MIC (superscript) (E. faecium; [4]) | susceptibility interpretation of MIC (superscript) (E. faecium; [5]) | susceptibility interpretation of MIC (superscript) (E. faecium; [6]) | susceptibility interpretation of MIC (superscript) (E. faecium; CSMHB, Control (no BPI)) | MIC (E. faecium; [2]) | MIC (E. faecium; [3]) | MIC (E. faecium; [4]) | MIC (E. faecium; [5]) | Minimum Inhibitory Concentration of Antibiotic ([1]; Control (No BPI21)) | susceptibility interpretation of MIC (superscript) ([1]; Control (No BPI21)) | Minimum Inhibitory Concentration of Antibiotic [1, 12] | susceptibility interpretation of MIC (superscript) [1, 12] | Minimum Inhibitory Concentration of Antibiotic [1, 13] | susceptibility interpretation of MIC (superscript) [1, 13] | Minimum Inhibitory Concentration of Antibiotic [1, 14] | susceptibility interpretation of MIC (superscript) [1, 14] | Minimum Inhibitory Concentration of Antibiotic [1, 15] | susceptibility interpretation of MIC (superscript) [1, 15] | further results |
| --- | --- | --- | --- | --- | --- | --- | --- | --- | --- | --- | --- | --- | --- | --- | --- | --- | --- | --- | --- | --- | --- |
| CO[C@H]1/C=C/O[C@@]2(C)Oc3c(C)c(O)c4c(O)c(c(/C=N/N5CCN(C)CC5)c(O)c4c3C2=O)NC(=O)/C(C)=C\C=C\[C@H](C)[C@H](O)[C@@H](C)[C@@H](O)[C@@H](C)[C@H](OC(C)=O)[C@@H]1C [Rifampicin] | S | S | S | S | S | R | 0.5 µg/mL (≈ 0.608 µM) | 0.5 µg/mL (≈ 0.608 µM) | 0.5 µg/mL (≈ 0.608 µM) | 0.5 µg/mL (≈ 0.608 µM) | – | – | – | – | – | – | – | – | – | – | MIC (E. faecium; [6]): 0.5 µg/mL (≈ 0.608 µM); MIC (E. faecium; CSMHB, Control (no BPI)): 4 µg/mL (≈ 4.86 µM); MIC (E. faecium; [7]): 1 µg/mL (≈ 1.22 µM); MIC (E. faecium; [8]): 1 µg/mL (≈ 1.22 µM); MIC (E. faecium; [9]): > 4 µg/mL; MIC (E. faecium; [10]): 0.5 µg/mL (≈ 0.608 µM); MIC (E. faecium; [11]): 0.5 µg/mL (≈ 0.608 µM); MIC (E. faecium; Serum, Control (no BPI)): 4 µg/mL (≈ 4.86 µM); susceptibility interpretation of MIC (superscript) (E. faecium; [7]): S; susceptibility interpretation of MIC (superscript) (E. faecium; [8]): S; susceptibility interpretation of MIC (superscript) (E. faecium; [9]): R; susceptibility interpretation of MIC (superscript) (E. faecium; [10]): S; susceptibility interpretation of MIC (superscript) (E. faecium; [11]): S; susceptibility interpretation of MIC (superscript) (E. faecium; Serum, Control (no BPI)): R |
| Amoxicillin/K Clavulanate [Amox/K Clavulanate] | – | – | – | – | – | – | – | – | – | – | > 32 µg/mL | R | > 32 µg/mL | R | < 1 µg/mL | S | 32 µg/mL | R | < 1 µg/mL | S | effect of EDTA added to the rBPI21/P123 formulation on susceptibility of the strain to the antibiotic [1]: reversing resistance |
| Cn1nnnc1SCC1=C(C(=O)O)N2C(=O)[C@@H](NC(=O)[C@H](O)c3ccccc3)[C@H]2SC1 [Cefamandole] | – | – | – | – | – | – | – | – | – | – | > 32 µg/mL | R | > 32 µg/mL | R | > 32 µg/mL | R | > 32 µg/mL | R | < 4 µg/mL | S | effect of EDTA added to the rBPI21/P123 formulation on susceptibility of the strain to the antibiotic [1]: reversing resistance |
| CO[C@@]1(NC(=O)C2SC(=C(C(N)=O)C(=O)O)S2)C(=O)N2C(C(=O)O)=C(CSc3nnnn3C)CS[C@@H]21 (stereo partly drawn) [Cefotetan] | – | – | – | – | – | – | – | – | – | – | > 32 µg/mL | R | > 32 µg/mL | R | < 4 µg/mL | S | < 4 µg/mL | S | < 4 µg/mL | S | – |
| O=C(O)c1cn(C2CC2)c2cc(N3CCNCC3)c(F)cc2c1=O [Ciprofloxacin] | S | S | S | S | S | I | 1 µg/mL (≈ 3.02 µM) | < 0.5 µg/mL | 1 µg/mL (≈ 3.02 µM) | 1 µg/mL (≈ 3.02 µM) | < 0.25 µg/mL | S | < 0.25 µg/mL | S | < 0.25 µg/mL | S | < 0.25 µg/mL | S | < 0.25 µg/mL | S | MIC (E. faecium; [6]): 1 µg/mL (≈ 3.02 µM); MIC (E. faecium; CSMHB, Control (no BPI)): 2 µg/mL (≈ 6.04 µM); susceptibility interpretation of MIC (superscript) (E. faecium; [7]): S; susceptibility interpretation of MIC (superscript) (E. faecium; [8]): I; susceptibility interpretation of MIC (superscript) (E. faecium; [9]): I; susceptibility interpretation of MIC (superscript) (E. faecium; [10]): I; susceptibility interpretation of MIC (superscript) (E. faecium; [11]): I; susceptibility interpretation of MIC (superscript) (E. faecium; Serum, Control (no BPI)): I |
